Patent US9682033B2, “Methods of treating postherpetic neuralgia with a topical formulation of a spiro-oxindole compound” (Teva Pharmaceuticals International GmbH, priority 2015, dated 2017)
“Also recorded” adds a separate entry of the source.

What was measured:
[1] = tested on: cultured human lymphocytes; assay: In vitro chromosome aberration assay in cultured human lymphocytes (GLP); format: cell-based
Source text: (§1) The spiro-oxindole compound was not genotoxic in the standard battery of genotoxicity tests (GLP), including a bacterial reverse mutation assay, an in vitro chromosome aberration assay in cultured human lymphocytes, and an in vivo rat bone marrow micronucleus test.

[2] = tested on: several CYP450 enzymes including CYP3A4; assay: In vitro CYP450 inhibition (human liver microsomes); format: in vitro ADME
Source text: However, the compound is also highly bound to constituents in human plasma, so distribution into hepatocytes may be hindered, reducing the inhibition potential. In vitro data using human cryopreserved hepatocytes have also shown that the spiro-oxindole compound metabolite (M3) is an inhibitor of CYP3A4 and CYP2C19. Therefore, certain medications that undergo major metabolism by CYP3A4 and CYP2C19 are excluded as concomitant medications during this study.

[3] = tested on: CYP3A4; assay: In vitro CYP3A4 induction; format: in vitro ADME
[4] = tested on: human hepatocytes; assay: In vitro metabolic stability in hepatocytes (human); format: in vitro ADME; settings: ^14C-spiro-oxindole compound
Source text: A total of 8 metabolites were identified in samples (in vitro and in vivo) from rats, dogs, and humans. All metabolites found in humans were also found in the Good Laboratory Practice (GLP) toxicology species, the rat. Following oral administration of spiro-oxindole compound to humans, spiro-oxindole compound and 3 of its metabolites (M1, M5, and M6) were measurable. A similar metabolic profile was observed following topical administration to humans, albeit at much lower plasma concentrations, except metabolite M1 was not detected following human topical administration.

[5] = tested on: CYP2C19; assay: clinical; settings: human, in vivo
Source text: This was a single center, open-label, 1-sequence drug-drug interaction study in 32 healthy adult male and female subjects. The study consisted of a 28-day screening period, a 10-day inpatient treatment period, and a follow-up visit. Subjects meeting the study inclusion/exclusion requirements were admitted to the clinical research unit on day −1 and were confined until day 10.
Blood samples were collected for the assessment of the pharmacokinetics of midazolam and omeprazole.
The primary pharmacokinetic endpoints were the geometric mean ratios (90% confidence intervals [CIs]) for Cmax, AUC0-t, and AUC0-inf for midazolam and omeprazole on day 9 versus day 1.
Blood samples were collected for the assessment of the pharmacokinetics of the major metabolites of midazolam (1-OH-midazolam) and omeprazole (5-OH-omeprazole), and for the spiro-oxindole compound. Further secondary pharmacokinetic variables included Cmax, tmax, AUC0-t, AUC0-inf, CL/F, λz, t1/2, and % AUCext for 1-OH-midazolam and 5-OH-omeprazole, on days 1 and 9, and Cmax, morning predose concentrations (Ctrough), average plasma concentration over the dosing interval (Cave), and area under the plasma concentration-time curve over the dosing interval (AUC0-τ) were presented for the spiro-oxindole compound.
Descriptive statistics (n, mean, geometric mean, standard deviation [SD], % CV, median, minimum, and maximum) were used to summarize plasma midazolam, omeprazole and their metabolites, and the spiro-oxindole compound concentration for all subjects overall at each scheduled time point. Descriptive statistics (as noted above) were also used to summarize plasma omeprazole, 5-OH-omeprazole, and the spiro-oxindole compound concentration for all subjects overall by CYP2C19 genotype at each scheduled time point. Pharmacokinetic parameters were derived by noncompartmental analysis. Descriptive statistics (as noted above) were used to summarize the calculated pharmacokinetic parameters for midazolam, omeprazole and their metabolites, and the spiro-oxindole compound by treatment for all subjects. Descriptive statistics (as noted above) were also used to summarize the calculated pharmacokinetic parameters for omeprazole, 5-OH-omeprazole, and the spiro-oxindole compound by treatment and CYP2C19 genotype. Plots of geometric mean and individual plasma concentrations and of select pharmacokinetic parameters for midazolam, omeprazole and their metabolites and the spiro-oxindole compound at select sampling times were provided. Additionally, plots of individual select pharmacokinetic parameters by CYP2C19 phenotype for omeprazole at select time points were provided.

[6] = tested on: bacterial reverse mutation; assay: Bacterial reverse mutation assay (GLP); format: cell-based
Source text: as §1

[7] = Protein binding in rat serum; format: in vitro ADME
[8] = in vivo; design: species or system rats; settings: rat, po
Experimental: The no-observed-adverse-effect level (NOAEL) was determined to be 150 mg/kg/day in both males and females. […] The NOAEL for maternal toxicity was 50 mg/kg/day. […] The NOAEL for embryo-fetal toxicity was 150 mg/kg/day.

Compound: O=C1N(Cc2ccc(C(F)(F)F)o2)c2ccccc2[C@]12COc1cc3c(cc12)OCO3 [spiro-oxindole compound, (S)-1′-{[5-(trifluoromethyl)furan-2-yl]methyl}spiro[furo[2,3-f][1,3]benzodioxole-7,3′-indol]-2′(1′H)-one]
- genotoxicity [1]: not genotoxic
- inhibition of CYP450 enzymes [2]: may inhibit several CYP450 enzymes including CYP3A4; also recorded: inhibitor of several CYP450 enzymes
- induction of CYP3A4 [3]: may also be a strong inducer of CYP3A4 with an activation potency similar to rifampicin
- in vitro metabolic stability in hepatocytes [4]: 80%
- Geometric LS mean ration (%) (test/reference), omeprazole AUC0-inf ([5]; both): 105.751%
- Geometric LS mean ration (%) (test/reference), omeprazole AUC0-t ([5]; both): 101.553%
- Geometric LS mean ration (%) (test/reference), omeprazole Cmax ([5]; both): 98.939%
- effect on systemic exposure to 5-OH-omeprazole (in words) ([5]; both): no relevant effect on systemic exposure to 5-OH-omeprazole
- effect on omeprazole pharmacokinetics (in words) [5]: no relevant effect on omeprazole pharmacokinetics
- genotoxicity [6]: not genotoxic
- protein bound [7]: 99.6%
- NOAEL ([8]; both sexes): 150 mg/kg/day
- AUC(0-t) ([8]; female, 50 mg/kg/day): 18000 ng·h/mL
- Cmax ([8]; female, 50 mg/kg/day): 1440 ng/mL
- AUC(0-t) ([8]; female, 150 mg/kg/day): 41500 ng·h/mL
- Cmax ([8]; female, 150 mg/kg/day): 3380 ng/mL
- NOAEL ([8]; female, NOAEL for embryo-fetal toxicity): 150 mg/kg/day
- NOAEL ([8]; female, NOAEL for maternal toxicity): 50 mg/kg/day
